Experimental data: PubChem BioAssay AID192 (DTP/NCI, 2004)
Where “and” joins values, the source holds several entries; their conditions need not be identical. Equal entries are not always repeated. Inconclusive results and toxic doses are left out.

Test system: BDF1 mice, B16 melanoma ip, median survival T/C
Assay: NCI In Vivo Anticancer Drug Screen. Data for tumor model B16 Melanoma (intraperitoneal) in B6D2F1 (BDF1) mice
Details: endpoint: median survival time, higher = longer survival
How it was run: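 Survival or tumor size is measured after treatment of tumor-bearing mice and normalised to the vehicle-treated control group.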

[1] = dose: 12.5 mg/kg/injection, schedule: Q01DX009 (ip), vehicle: Klucel (hydroxypropylcellulose) (HPC)
[2] = dose: 25.0 mg/kg/injection, schedule: Q01DX009 (ip), vehicle: Klucel (hydroxypropylcellulose) (HPC)
[3] = dose: 25.0 mg/kg/injection, schedule: Q04DX003 (ip), vehicle: Klucel (hydroxypropylcellulose) (HPC)
[4] = dose: 0.5 mg/kg/injection, schedule: Q01DX009 (ip), vehicle: Klucel (hydroxypropylcellulose) (HPC)
[5] = dose: 1.0 mg/kg/injection, schedule: Q01DX009 (ip), vehicle: Klucel (hydroxypropylcellulose) (HPC)
[6] = dose: 100.0 mg/kg/injection, schedule: Q01DX009 (ip), vehicle: Klucel (hydroxypropylcellulose) (HPC)
[7] = dose: 200.0 mg/kg/injection, schedule: Q01DX009 (ip), vehicle: Klucel (hydroxypropylcellulose) (HPC)
[8] = dose: 400.0 mg/kg/injection, schedule: Q01DX009 (ip), vehicle: Klucel (hydroxypropylcellulose) (HPC)
[9] = dose: 37.5 mg/kg/injection, schedule: Q01DX009 (ip), vehicle: saline
[10] = dose: 50.0 mg/kg/injection, schedule: Q01DX009 (ip), vehicle: Klucel (hydroxypropylcellulose) (HPC)
[11] = dose: 25.0 mg/kg/injection, schedule: Q01DX009 (ip), vehicle: saline with Tween-80
[12] = dose: 50.0 mg/kg/injection, schedule: Q01DX009 (ip), vehicle: saline with Tween-80
[13] = dose: 100.0 mg/kg/injection, schedule: Q01DX009 (ip), vehicle: saline with Tween-80
[14] = dose: 12.5 mg/kg/injection, schedule: Q01DX009 (ip), vehicle: saline with Tween-80
[15] = dose: 200.0 mg/kg/injection, schedule: Q01DX009 (ip), vehicle: saline with Tween-80
[16] = dose: 50.0 mg/kg/injection, schedule: Q04DX003 (ip), vehicle: Klucel (hydroxypropylcellulose) (HPC)
[17] = dose: 100.0 mg/kg/injection, schedule: Q04DX003 (ip), vehicle: Klucel (hydroxypropylcellulose) (HPC)
[18] = dose: 6.25 mg/kg/injection, schedule: Q01DX009 (ip), vehicle: saline with Tween-80

In the case of `CCOC(=O)c1c(N)sc2c1CCN(C)C2`, the T/C (dose: 6.25 mg/kg/injection, schedule: Q04DX003 (ip), vehicle: Klucel (hydroxypropylcellulose) (HPC)) is reported as 95 % of control, the T/C [1] is reported as 100 % of control and the T/C (dose: 12.5 mg/kg/injection, schedule: Q04DX003 (ip), vehicle: Klucel (hydroxypropylcellulose) (HPC)) is reported as 102 % of control. The T/C [2] was 102 % of control, the T/C [3] was 89 % of control and the T/C (dose: 35.0 mg/kg/injection, schedule: Q04DX003 (ip), vehicle: Klucel (hydroxypropylcellulose) (HPC)) was 105 % of control. For the same compound, the T/C (dose: 55.0 mg/kg/injection, schedule: Q04DX003 (ip), vehicle: Klucel (hydroxypropylcellulose) (HPC)) was 121 % of control.

With `CC(=O)Oc1ccc(OC(C)=O)c2c1C(=O)C=CC2=O` the T/C [4] was 86 % of control and the T/C [5] was 88 % of control.

`CN1CCCCC1CCN1c2ccccc2Sc2ccc(Cl)cc21` (stereo not drawn) was tested, and the T/C (dose: 1.56 mg/kg/injection, schedule: Q01DX009 (ip), vehicle: saline) was 109 % of control, the T/C (dose: 3.12 mg/kg/injection, schedule: Q01DX009 (ip), vehicle: saline) was 102 % of control and the T/C (dose: 6.25 mg/kg/injection, schedule: Q01DX009 (ip), vehicle: saline) was 100 % of control. The T/C (dose: 12.5 mg/kg/injection, schedule: Q01DX009 (ip), vehicle: saline) was 103 % of control and the T/C (dose: 25.0 mg/kg/injection, schedule: Q01DX009 (ip), vehicle: saline) was 94 % of control.

`O=C1NC(c2ccc3ccccc3c2)Nc2ccccc21` (stereo not drawn) was tested, and the T/C [6] was 96 % of control, the T/C [7] was 103 % of control and the T/C [8] was 90 % of control.

In the case of `CCN(CC)P(=O)(N1CC1C)N1CC1C` (stereo not drawn), the T/C (dose: 9.3 mg/kg/injection, schedule: Q01DX009 (ip), vehicle: saline) is reported as 123 % of control, the T/C (dose: 18.7 mg/kg/injection, schedule: Q01DX009 (ip), vehicle: saline) is reported as 112 % of control and the T/C [9] is reported as 99 % of control.

In the case of `NC(=O)N1c2ccccc2C=Cc2ccccc21`, the T/C [1] is reported as 112 % of control, the T/C [2] is reported as 100 % of control and the T/C [10] is reported as 106 % of control. For the same compound, the T/C [6] was 91 % of control and the T/C [7] was 90 % of control.

`CN(C)C1=C(N2CC2)C(=O)C(N(C)C)=C(N2CC2)C1=O` was tested, and the T/C (dose: 0.12 mg/kg/injection, schedule: Q01DX009 (ip), vehicle: saline) was 106 % of control, the T/C (dose: 0.25 mg/kg/injection, schedule: Q01DX009 (ip), vehicle: saline) was 112 % of control and the T/C (dose: 0.5 mg/kg/injection, schedule: Q01DX009 (ip), vehicle: saline) was 93 % of control. For the same compound, the T/C (dose: 1.0 mg/kg/injection, schedule: Q01DX009 (ip), vehicle: saline) was 112 % of control.

With `Cc1c(Cl)cccc1NC(=O)C(c1ccccc1)c1ccccc1` the T/C [11] was 99 % of control, the T/C [12] was 86 % of control and the T/C [13] was 91 % of control.

`Cc1ccc(Nc2nnc(N=Nc3ccccc3)s2)cc1C` was tested, and the T/C [10] was 86 % of control, the T/C [6] was 91 % of control and the T/C [7] was 91 % of control.

In the case of `COc1ccc(NC(=O)COc2ccccc2Br)cc1`, the T/C [6] is reported as 103 % of control, the T/C [7] is reported as 100 % of control and the T/C [8] is reported as 93 % of control.

With `c1ccc2c(c1)[As]=c1ccccc1=[As]2` (stereo not drawn) the T/C (dose: 0.75 mg/kg/injection, schedule: Q01DX009 (ip), vehicle: saline with Tween-80) was 104 % of control, the T/C (dose: 1.5 mg/kg/injection, schedule: Q01DX009 (ip), vehicle: saline with Tween-80) was 106 % of control and the T/C (dose: 3.0 mg/kg/injection, schedule: Q01DX009 (ip), vehicle: saline with Tween-80) was 100 % of control. The T/C (dose: 6.0 mg/kg/injection, schedule: Q01DX009 (ip), vehicle: saline with Tween-80) was 110 % of control.

`C#CC(C)(C)OCC(CCl)OC(N)=O` (stereo not drawn) was tested, and the T/C [14] was 91 % of control, the T/C [11] was 100 % of control and the T/C [12] was 104 % of control. The T/C [13] was 93 % of control and the T/C [15] was 95 % of control.

With `CCC(=O)O[C@H]1CC[C@H]2[C@@H]3CCC4=CC(=O)CC[C@]4(C)[C@H]3CC[C@]12C` the T/C [2] was 96 % of control, the T/C (dose: 40.0 mg/kg/injection, schedule: Q02DX009 (ip), vehicle: Klucel (hydroxypropylcellulose) (HPC)) was 100 % of control and the T/C [10] was 90 % of control. For the same compound, the T/C (dose: 80.0 mg/kg/injection, schedule: Q02DX009 (ip), vehicle: Klucel (hydroxypropylcellulose) (HPC)) was 105 % of control, the T/C [6] was 95 % of control and the T/C [7] was 91 % of control. For the same compound, the T/C (dose: 320.0 mg/kg/injection, schedule: Q02DX009 (ip), vehicle: Klucel (hydroxypropylcellulose) (HPC)) was 105 % of control and the T/C [8] was 94 % of control.

With `C=C1C(=O)OC2CC(C)C3C4OC4C(O)C3(C)C(O)C12` (stereo not drawn) the T/C (dose: 9.38 mg/kg/injection, schedule: Q01DX009 (ip), vehicle: saline) was 94 % of control, the T/C (dose: 18.75 mg/kg/injection, schedule: Q01DX009 (ip), vehicle: saline) was 94 % of control and the T/C [9] was 103 % of control.

With `C=CCN(C)N=Nc1ccc(C(N)=O)cc1` the T/C [2] was 105 % of control, the T/C [10] was 110 % of control and the T/C [6] was 107 % of control.

In the case of `C=CC(C)NC(=S)NNC(=S)NC` (stereo not drawn), the T/C (dose: 25.0 mg/kg/injection, schedule: Q01DX009 (ip), vehicle: saline + alcohol) is reported as 97 % of control, the T/C (dose: 50.0 mg/kg/injection, schedule: Q01DX009 (ip), vehicle: saline + alcohol) is reported as 102 % of control and the T/C (dose: 100.0 mg/kg/injection, schedule: Q01DX009 (ip), vehicle: saline + alcohol) is reported as 104 % of control. The T/C (dose: 200.0 mg/kg/injection, schedule: Q01DX009 (ip), vehicle: saline + alcohol) was 98 % of control and the T/C (dose: 400.0 mg/kg/injection, schedule: Q01DX009 (ip), vehicle: saline + alcohol) was 97 % of control.

For `CC(=O)Oc1cccc(C)c1`, the T/C [15] was 106 % of control.

With `O=[N+]([O-])c1cccs1` the T/C [3] was 105 % of control, the T/C [16] was 105 % of control and the T/C [17] was 112 % of control.

With `COC1CC(C)C(OC)c2cc(O)cc(c2O)NC(=O)/C(C)=C/C=C\C(C)C(OC(N)=O)/C(C)=C\C(C)C1OC` (stereo not drawn) the T/C (dose: 2.5 mg/kg/injection, schedule: Q01DX009 (ip), vehicle: Klucel (hydroxypropylcellulose) (HPC)) was 176 % of control and 187 % of control, the T/C (dose: 5.0 mg/kg/injection, schedule: Q01DX009 (ip), vehicle: Klucel (hydroxypropylcellulose) (HPC)) was 177 % of control and 208 % of control and the T/C (dose: 5.0 mg/kg/injection, schedule: Q01DX009 (ip), vehicle: saline + alcohol) was 242 % of control.

`COc1cc(/C=C/c2nc3ccccc3nc2/C=C/c2cc(OC)c(OC)c(OC)c2)cc(OC)c1OC` was tested, and the T/C [18] was 106 % of control and the T/C [14] was 97 % of control.

With `CNC(=O)n1c(N)nc(-c2ccccc2)c1-c1ccccc1` the T/C [18] was 98 % of control, the T/C [14] was 98 % of control and the T/C [11] was 106 % of control. For the same compound, the T/C [12] was 107 % of control.

With `CC(C)=CC1C(C(=O)OCc2ccc(C)cc2C)C1(C)C` (stereo not drawn) the T/C [18] was 99 % of control, the T/C [14] was 104 % of control and the T/C [11] was 110 % of control. The T/C [12] was 103 % of control.

In the case of `COc1cc2c(cc1OC)C(OC)N(C)c1c-2ccc2cc(OC)c(OC)cc12` (stereo not drawn), the T/C (dose: 37.5 mg/kg/injection, schedule: Q01DX009 (ip), vehicle: Klucel (hydroxypropylcellulose) (HPC)) is reported as 98 % of control, the T/C (dose: 75.0 mg/kg/injection, schedule: Q01DX009 (ip), vehicle: Klucel (hydroxypropylcellulose) (HPC)) is reported as 95 % of control and the T/C (dose: 150.0 mg/kg/injection, schedule: Q01DX009 (ip), vehicle: Klucel (hydroxypropylcellulose) (HPC)) is reported as 100 % of control. For the same compound, the T/C (dose: 300.0 mg/kg/injection, schedule: Q01DX009 (ip), vehicle: Klucel (hydroxypropylcellulose) (HPC)) was 100 % of control.

In the case of `CC[C@@H]1O[C@H]2O[C@@H](/C=C/C=C/C=C/c3oc(=O)cc(OC)c3C)[C@@H](O)[C@@]2(C)[C@]1(C)O`, the T/C [4] is reported as 94 % of control, the T/C [5] is reported as 90 % of control and the T/C (dose: 2.0 mg/kg/injection, schedule: Q01DX009 (ip), vehicle: Klucel (hydroxypropylcellulose) (HPC)) is reported as 92 % of control.

In the case of `CC(=O)OC1=C(c2ccccc2)C(=O)c2ccccc21`, the T/C [3] is reported as 86 % of control, the T/C [16] is reported as 86 % of control and the T/C [17] is reported as 86 % of control.
